This test concerns BDF1 mice, s.c. Lewis lung carcinoma, T/C %. Put plainly: NCI In Vivo Anticancer Drug Screen. Data for tumor model Lewis Lung Carcinoma (subcutaneous) in B6D2F1 (BDF1) mice. The essentials: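 Transplanted tumors grown in mice; compound vs vehicle dosing; endpoint survival or tumor size; ratio T/C.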
[1] abbreviates: endpoint: median survival time, dose: 4.0 mg/kg/injection, schedule: Q01DX009 (ip), vehicle: Klucel (hydroxypropylcellulose) (HPC), higher = longer survival.
Where [2] appears, read: endpoint: mean tumor weight, dose: 22.0 mg/kg/injection, schedule: Q01DX011 (ip), vehicle: carboxymethylcellulose (CMC), higher = larger tumour.
Setting [3] is: endpoint: mean tumor weight, dose: 35.0 mg/kg/injection, schedule: Q01DX011 (ip), vehicle: carboxymethylcellulose (CMC), higher = larger tumour.
[4] abbreviates: endpoint: mean tumor weight, dose: 50.0 mg/kg/injection, schedule: Q01DX011 (ip), vehicle: carboxymethylcellulose (CMC), higher = larger tumour.

Where “and” joins values, the source holds several entries; their conditions need not be identical. Equal values may be shown once. Inconclusive results are not listed.

`Cc1c(N)nc([C@H](CC(N)=O)NC[C@H](N)C(N)=O)nc1C(=O)N[C@H](C(=O)N[C@H](C)[C@@H](O)[C@H](C)C(=O)N[C@H](C(=O)NCCc1nc(-c2nc(C(=O)NCCC[S+](C)C)cs2)cs1)[C@@H](C)O)C(OC1OC(CO)C(O)C(O)C1OC1OC(CO)C(O)C(OC(N)=O)C1O)c1cnc[nH]1` (stereo not given in full): the T/C is, setting by setting: (endpoint: mean survival time, dose: 4.0 mg/kg/injection, schedule: Q01DX009 (ip), vehicle: saline, higher = longer survival) 111 % of control; (endpoint: mean survival time, dose: 8.0 mg/kg/injection, schedule: Q01DX009 (ip), vehicle: saline, higher = longer survival) 102 % of control; (endpoint: mean survival time, dose: 12.0 mg/kg/injection, schedule: Q01DX009 (ip), vehicle: saline, higher = longer survival) 107 % of control; (endpoint: median survival time, dose: 1.0 mg/kg/injection, schedule: Q01DX009 (ip), vehicle: water, higher = longer survival) 90 % of control; (endpoint: median survival time, dose: 1.7 mg/kg/injection, schedule: Q01DX009 (ip), vehicle: water, higher = longer survival) 94 % of control; (endpoint: median survival time, dose: 2.0 mg/kg/injection, schedule: Q01DX009 (ip), vehicle: saline, higher = longer survival) 107 % of control. In addition, the T/C is, setting by setting: (endpoint: median survival time, dose: 2.0 mg/kg/injection, schedule: Q01DX009 (ip), vehicle: water, higher = longer survival) 112 % of control; (endpoint: median survival time, dose: 2.9 mg/kg/injection, schedule: Q01DX009 (ip), vehicle: water, higher = longer survival) 94 % of control; (endpoint: median survival time, dose: 3.12 mg/kg/injection, schedule: Q04DX003 (sc), vehicle: saline, higher = longer survival) 90 % of control and 92 % of control; (endpoint: median survival time, dose: 4.0 mg/kg/injection, schedule: Q01DX009 (ip), vehicle: water, higher = longer survival) 94 % of control and 118 % of control; (endpoint: median survival time, dose: 4.0 mg/kg/injection, schedule: Q04DX003 (ip), vehicle: saline, higher = longer survival) 96 % of control and 110 % of control; (endpoint: median survival time, dose: 4.8 mg/kg/injection, schedule: Q01DX009 (ip), vehicle: water, higher = longer survival) 118 % of control. The T/C runs as follows: (endpoint: median survival time, dose: 6.25 mg/kg/injection, schedule: Q04DX003 (sc), vehicle: saline, higher = longer survival) 96 % of control; (endpoint: median survival time, dose: 8.0 mg/kg/injection, schedule: Q01DX009 (ip), vehicle: water, higher = longer survival) 102 % of control and 112 % of control; (endpoint: median survival time, dose: 8.0 mg/kg/injection, schedule: Q04DX003 (ip), vehicle: saline, higher = longer survival) 96 % of control and 114 % of control; (endpoint: median survival time, dose: 12.0 mg/kg/injection, schedule: Q01DX009 (ip), vehicle: saline, higher = longer survival) 100 % of control; (endpoint: median survival time, dose: 12.5 mg/kg/injection, schedule: Q04DX003 (sc), vehicle: saline, higher = longer survival) 102 % of control and 108 % of control; (endpoint: median survival time, dose: 16.0 mg/kg/injection, schedule: Q04DX003 (ip), vehicle: saline, higher = longer survival) 84 % of control and 112 % of control. In addition, the T/C is 82 % of control (endpoint: median survival time, dose: 22.2 mg/kg/injection, schedule: Q01DX009 (ip), vehicle: water, higher = longer survival); 98 % of control (endpoint: median survival time, dose: 25.0 mg/kg/injection, schedule: Q04DX003 (sc), vehicle: saline, higher = longer survival); 50 % of control and 108 % of control (endpoint: median survival time, dose: 32.0 mg/kg/injection, schedule: Q04DX003 (ip), vehicle: saline, higher = longer survival); 117 % of control and 118 % of control (endpoint: median survival time, dose: 50.0 mg/kg/injection, schedule: Q04DX003 (sc), vehicle: saline, higher = longer survival); 37 % of control and 97 % of control (endpoint: median survival time, dose: 64.0 mg/kg/injection, schedule: Q04DX003 (ip), vehicle: saline, higher = longer survival); 116 % of control and 124 % of control (endpoint: median survival time, dose: 100.0 mg/kg/injection, schedule: Q04DX003 (sc), vehicle: saline, higher = longer survival). For the same compound, the T/C reads like this: (endpoint: median tumor weight (est.), dose: 2.0 mg/kg/injection, schedule: Q01DX009 (ip), vehicle: saline, higher = larger tumour) 71 % of control; (endpoint: median tumor weight (est.), dose: 2.0 mg/kg/injection, schedule: Q01DX009 (ip), vehicle: water, higher = larger tumour) 34 % of control; (endpoint: median tumor weight (est.), dose: 4.0 mg/kg/injection, schedule: Q01DX009 (ip), vehicle: saline, higher = larger tumour) 77 % of control; (endpoint: median tumor weight (est.), dose: 4.0 mg/kg/injection, schedule: Q01DX009 (ip), vehicle: water, higher = larger tumour) 24 % of control; (endpoint: median tumor weight (est.), dose: 8.0 mg/kg/injection, schedule: Q01DX009 (ip), vehicle: saline, higher = larger tumour) 34 % of control; (endpoint: median tumor weight (est.), dose: 8.0 mg/kg/injection, schedule: Q01DX009 (ip), vehicle: water, higher = larger tumour) 8 % of control. The T/C (endpoint: median tumor weight (est.), dose: 16.0 mg/kg/injection, schedule: Q01DX009 (ip), vehicle: saline, higher = larger tumour) is 26 % of control.

As to `CC(=O)O[C@H]1C(=O)[C@@]2(C)[C@H]([C@H](OC(=O)c3ccccc3)[C@]3(O)C[C@H](OC(=O)[C@H](O)[C@@H](NC(=O)c4ccccc4)c4ccccc4)C(C)=C1C3(C)C)[C@]1(OC(C)=O)CO[C@@H]1C[C@@H]2O`, the T/C is, setting by setting: under setting [1], 112 % of control; (endpoint: median survival time, dose: 6.0 mg/kg/injection, schedule: Q01DX009 (ip), vehicle: Klucel (hydroxypropylcellulose) (HPC), higher = longer survival) 109 % of control; (endpoint: median survival time, dose: 11.0 mg/kg/injection, schedule: Q04DX003 (ip), vehicle: Klucel (hydroxypropylcellulose) (HPC), higher = longer survival) 94 % of control; (endpoint: median survival time, dose: 13.0 mg/kg/injection, schedule: Q01DX001 (ip), vehicle: Klucel (hydroxypropylcellulose) (HPC), higher = longer survival) 107 % of control; (endpoint: median survival time, dose: 16.0 mg/kg/injection, schedule: Q04DX003 (ip), vehicle: Klucel (hydroxypropylcellulose) (HPC), higher = longer survival) 109 % of control; (endpoint: median survival time, dose: 20.0 mg/kg/injection, schedule: Q01DX001 (ip), vehicle: Klucel (hydroxypropylcellulose) (HPC), higher = longer survival) 99 % of control. The T/C (endpoint: median survival time, dose: 30.0 mg/kg/injection, schedule: Q01DX001 (ip), vehicle: Klucel (hydroxypropylcellulose) (HPC), higher = longer survival) is 101 % of control.

In the case of `O=S(=O)(O)c1cc(O)ccc1O`, the T/C is 66 % of control (endpoint: mean tumor weight, dose: 133.0 mg/kg/injection, schedule: Q01DX011 (ip), vehicle: saline, higher = larger tumour); 99 % of control and 119 % of control (endpoint: mean tumor weight, dose: 300.0 mg/kg/injection, schedule: Q01DX011 (ip), vehicle: saline, higher = larger tumour); 67 % of control (endpoint: mean tumor weight, dose: 600.0 mg/kg/injection, schedule: Q01DX011 (ip), vehicle: saline, higher = larger tumour).

As for `c1cn[nH]c1`, the T/C was 54 % of control (endpoint: mean tumor weight, dose: 20.0 mg/kg/injection, schedule: Q01DX011 (ip), vehicle: water, higher = larger tumour); 45 % of control (endpoint: mean tumor weight, dose: 40.0 mg/kg/injection, schedule: Q01DX011 (ip), vehicle: water, higher = larger tumour); 32 % of control (endpoint: mean tumor weight, dose: 80.0 mg/kg/injection, schedule: Q01DX011 (ip), vehicle: water, higher = larger tumour).

Turning to `CC(=O)C(C)=O`, the T/C reads like this: (endpoint: mean tumor weight, dose: 50.0 mg/kg/injection, schedule: Q01DX011 (ip), vehicle: saline, higher = larger tumour) 116 % of control; (endpoint: mean tumor weight, dose: 100.0 mg/kg/injection, schedule: Q01DX011 (ip), vehicle: saline, higher = larger tumour) 76 % of control; (endpoint: mean tumor weight, dose: 200.0 mg/kg/injection, schedule: Q01DX011 (ip), vehicle: saline, higher = larger tumour) 71 % of control; (endpoint: mean tumor weight, dose: 400.0 mg/kg/injection, schedule: Q01DX011 (ip), vehicle: saline, higher = larger tumour) 87 % of control.

For `CCCCCCCCCCCCCCCCC(C(=O)O)C(O)(CC(=O)O)C(=O)O` (stereo not given), the T/C is, setting by setting: under setting [2], 64 % of control; under setting [3], 68 % of control; under setting [4], 46 % of control.

Consider `COc1cc(-c2cc(=O)c3c(OC)c(OC)c(OC)c(OC)c3o2)cc(OC)c1OC`, for which the T/C is, setting by setting: (endpoint: mean tumor weight, dose: 50.0 mg/kg/injection, schedule: Q01DX010 (sc), vehicle: steriod suspending solution, higher = larger tumour) 87 % of control; (endpoint: mean tumor weight, dose: 100.0 mg/kg/injection, schedule: Q01DX010 (sc), vehicle: steriod suspending solution, higher = larger tumour) 102 % of control; (endpoint: mean tumor weight, dose: 200.0 mg/kg/injection, schedule: Q01DX010 (sc), vehicle: steriod suspending solution, higher = larger tumour) 97 % of control.

Take `CS(=O)(=O)OCC#CCOS(C)(=O)=O`: the T/C reads like this: (endpoint: mean tumor weight, dose: 16.0 mg/kg/injection, schedule: Q01DX011 (ip), vehicle: saline, higher = larger tumour) 91 % of control; (endpoint: mean tumor weight, dose: 32.0 mg/kg/injection, schedule: Q01DX011 (ip), vehicle: saline, higher = larger tumour) 63 % of control.

For `CNS(=O)(=O)c1ncnc2nc[nH]c12`, the T/C reads like this: under setting [2], 61 % of control; under setting [3], 62 % of control; under setting [4], 56 % of control.

Turning to `COC1=C(N2CC2)C(=O)C(OC)=C(N2CC2)C1=O`, the T/C by setting is: (endpoint: median survival time, dose: 0.25 mg/kg/injection, schedule: Q01DX009 (ip), vehicle: Klucel (hydroxypropylcellulose) (HPC), higher = longer survival) 97 % of control; (endpoint: median survival time, dose: 0.5 mg/kg/injection, schedule: Q01DX009 (ip), vehicle: Klucel (hydroxypropylcellulose) (HPC), higher = longer survival) 106 % of control; (endpoint: median survival time, dose: 1.0 mg/kg/injection, schedule: Q01DX009 (ip), vehicle: Klucel (hydroxypropylcellulose) (HPC), higher = longer survival) 101 % of control; (endpoint: median survival time, dose: 2.0 mg/kg/injection, schedule: Q01DX009 (ip), vehicle: Klucel (hydroxypropylcellulose) (HPC), higher = longer survival) 111 % of control; under setting [1], 124 % of control.

Consider `CS(=O)(=O)OCC(O)C(O)COS(C)(=O)=O` (stereo not given), for which the T/C is, setting by setting: (endpoint: mean tumor weight, dose: 125.0 mg/kg/injection, schedule: Q01DX011 (ip), vehicle: saline, higher = larger tumour) 87 % of control; (endpoint: mean tumor weight, dose: 250.0 mg/kg/injection, schedule: Q01DX011 (ip), vehicle: saline, higher = larger tumour) 77 % of control; (endpoint: mean tumor weight, dose: 500.0 mg/kg/injection, schedule: Q01DX011 (ip), vehicle: other, higher = larger tumour) 75 % of control; (endpoint: mean tumor weight, dose: 500.0 mg/kg/injection, schedule: Q01DX011 (ip), vehicle: saline, higher = larger tumour) 59 % of control; (endpoint: mean tumor weight, dose: 750.0 mg/kg/injection, schedule: Q01DX011 (ip), vehicle: other, higher = larger tumour) 93 % of control; (endpoint: mean tumor weight, dose: 1000.0 mg/kg/injection, schedule: Q01DX011 (ip), vehicle: other, higher = larger tumour) 55 % of control.

The values above are taken from PubChem BioAssay AID270 (DTP/NCI, 2004).
